According to article PMC11448502, “Cryo-EM structures of the human P2X1 receptor reveal subtype-specific architecture and antagonism by supramolecular ligand-binding” (Nature Communications, 2024):
Substitutions are numbered along the chain they refer to. Where “and” joins values, the source holds several entries; their conditions need not be identical. Identical values can stand only once. Entries after “also recorded” stand apart in the source; their conditions may differ. Blank lines part the entries; values can stand above or below the compound they belong to.

Columns and labels:
platelets = settings: ex vivo; cited from earlier work
hP2X1 R139A = molecular target: T1, hP2X1 R139A (Homo sapiens, UniProt P51575, R139A); assay: ATP dose response (EC50), TEVC in oocytes; assay type: cell-based
T1 construct: hP2X1 mRNA that was made from linearized full-length wild-type or mutant pcDNA 3.1x; expressed in transfected cells; host or cells: Xenopus laevis oocytes (mRNA injection)
T1 sequence (P51575 1-399 R139A): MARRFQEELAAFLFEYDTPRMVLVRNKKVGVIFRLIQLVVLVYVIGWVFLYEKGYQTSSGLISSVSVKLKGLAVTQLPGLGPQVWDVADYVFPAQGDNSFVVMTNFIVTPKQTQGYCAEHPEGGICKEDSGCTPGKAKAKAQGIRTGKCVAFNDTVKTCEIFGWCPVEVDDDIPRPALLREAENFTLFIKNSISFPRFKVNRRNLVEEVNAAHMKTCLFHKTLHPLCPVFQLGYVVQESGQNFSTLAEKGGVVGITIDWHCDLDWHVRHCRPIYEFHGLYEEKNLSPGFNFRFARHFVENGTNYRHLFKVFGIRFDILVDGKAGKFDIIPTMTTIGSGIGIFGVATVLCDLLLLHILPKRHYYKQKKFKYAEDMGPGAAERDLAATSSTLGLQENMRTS
Experimental: (§1) Oocytes were purchased defolliculated from Ecocyte Bioscience in Barth’s Solution (88 mM NaCl, 1 mM KCl, 0.82 mM MgSO4, 0.33 mM Ca(NO3)2, 0.41 mM CaCl2, 2.4 mM NaHCO3, 5 mM Tris-HCl) supplemented with penicillin (100 U/mL) and streptomycin (100 µg/mL). Xenopus laevis oocytes were then injected with 50 nL of 100 ng/μL hP2X1 mRNA that was made from linearized full-length wild-type or mutant pcDNA 3.1x according to the protocol provided in the mMessage mMachine kit (Invitrogen). Injected oocytes were allowed to express for ~20 hours at 18 °C before recording was performed.
(§2) Data acquisition was performed using the Oocyte Clamp OC-725C amplifier and pClamp 8.2 software. Buffers were applied using a gravity fed RSC-200 Rapid Solution Changer that flows at ~5 mL/min. All experiments use Sutter filamented glass 10 cm in length with an inner diameter of 0.69 mm and an outer diameter of 1.2 mm to impale oocytes and clamp the holding voltage at −60 mV. Experiments were recorded in buffer containing 10 mM HEPES (pH 7.4), 140 mM NaCl, 5 mM KCl, 2 mM CaCl2, 2 mM MgCl2, and 10 mM glucose.
(§3) Excitatory responses to a dilution series of ATP between 6.4 nM and 10 mM were examined across the different mutants. Each evoked response was normalized to an initial ATP-induced current evoked by the following concentrations: 500 µM ATP for R292A, 2 mM ATP for K309A, and 100 µM ATP for the remaining mutants and wild-type receptor. The data was fit in Prism 9 using the nonlinear regression named “EC50, x is concentration” to afford EC50 values. This value was then averaged amongst each singular condition and reported as an average plus or minus the standard deviation.

hP2X1 K136A = molecular target: T2, hP2X1 K136A (Homo sapiens, UniProt P51575, K136A); assay: ATP dose response (EC50), TEVC in oocytes; assay type: cell-based
T2 construct: hP2X1 mRNA that was made from linearized full-length wild-type or mutant pcDNA 3.1x; expressed in transfected cells; host or cells: Xenopus laevis oocytes (mRNA injection)
T2 sequence (P51575 1-399 K136A): T1 sequence (P51575 1-399 R139A) with K136A, A139R
Experimental: as §1, §2, §3

hP2X1 K309A = molecular target: T3, hP2X1 K309A (Homo sapiens, UniProt P51575, K309A); assay: ATP dose response (EC50), TEVC in oocytes; assay type: cell-based
T3 construct: hP2X1 mRNA that was made from linearized full-length wild-type or mutant pcDNA 3.1x; expressed in transfected cells; host or cells: Xenopus laevis oocytes (mRNA injection)
T3 sequence (P51575 1-399 K309A): T1 sequence (P51575 1-399 R139A) with A139R, K309A
Experimental: as §1, §2, §3

hP2X1 K140A = molecular target: T4, hP2X1 K140A (Homo sapiens, UniProt P51575, K140A); assay: ATP dose response (EC50), TEVC in oocytes; assay type: cell-based; settings: for Normalized Current: hP2X1 K140A
T4 construct: hP2X1 mRNA that was made from linearized full-length wild-type or mutant pcDNA 3.1x; expressed in transfected cells; host or cells: Xenopus laevis oocytes (mRNA injection)
T4 sequence (P51575 1-399 K140A): T1 sequence (P51575 1-399 R139A) with A139R, K140A
Experimental: as §1, §2, §3

P2X3 = tested on: P2X3; parameters: method as in doi: 10.1111/bph.15299; settings: reviewer comment, ref doi: 10.1111/bph.15299, read-out: EC50 of ATP; cited from earlier work

SMILES: O=C(Nc1cc(C(=O)Nc2ccc(S(=O)(=O)O)cc2S(=O)(=O)O)cc(C(=O)Nc2ccc(S(=O)(=O)O)cc2S(=O)(=O)O)c1)Nc1cc(C(=O)Nc2ccc(S(=O)(=O)O)cc2S(=O)(=O)O)cc(C(=O)Nc2ccc(S(=O)(=O)O)cc2S(=O)(=O)O)c1 [NF449, 4,4’,4”,4’’’-(carbonylbis(imino-5,1,3-benzenetriylbis(carbonylimino)))tetrakis-benzene-1,3-disulfonic acid]
effect on platelet activation (platelets): inhibitory effect

Normalized Current (hP2X1 R139A; [ATP] 1.000E-04 M): 0.9464 and 0.9017 and 0.9178 | Normalized Current (hP2X1 R139A; [ATP] 2.000E-05 M): 0.8825 and 0.6805 and 0.736 | Normalized Current (hP2X1 R139A; [ATP] 4.000E-06 M): 0.6603 and 0.5057 and 0.6077 | Normalized Current (hP2X1 R139A; [ATP] 5.000E-04 M): 1.062 and 0.93 and 1.008 | EC50 of ATP (hP2X1 K136A; TEVC): did not affect | Normalized Current (hP2X1 K136A; [ATP] 1.000E-04 M): 0.9825 and 0.9019 and 0.8989 | Normalized Current (hP2X1 K136A; [ATP] 2.000E-05 M): 0.8446 and 0.8328 and 0.7216 | Normalized Current (hP2X1 K136A; [ATP] 4.000E-06 M): 0.7216 and 0.6921 and 0.6232 | Normalized Current (hP2X1 K136A; [ATP] 5.000E-04 M): 1.035 and 0.9912 and 0.9735 | Normalized Current (hP2X1 K136A; [ATP] 8.000E-07 M): 0.3703 and 0.2936 and 0.2241 | EC50 of ATP (hP2X1 K309A; TEVC): impacted | Normalized Current (hP2X1 K309A; [ATP] 1.000E-02 M): 1.006 and 0.9573 and 1.036 | Normalized Current (hP2X1 K309A; [ATP] 2.000E-03 M): 0.8423 and 0.8039 and 0.8072 | Normalized Current (hP2X1 K309A; [ATP] 3.200E-06 M): 0.000000 | Normalized Current (hP2X1 K309A; [ATP] 4.000E-04 M): 0.3324 and 0.3289 and 0.2846 | Normalized Current (hP2X1 K140A; [ATP] 1.000E-04 M): 1.047 and 0.9489 and 0.9169 | Normalized Current (hP2X1 K140A; [ATP] 4.000E-06 M): 0.661 and 0.6317 and 0.5508 | Normalized Current (hP2X1 K140A; [ATP] 5.000E-04 M): 1.045 and 0.9875 and 0.9677
SMILES: Nc1ncnc2c1ncn2[C@@H]1O[C@H](COP(=O)(O)OP(=O)(O)OP(=O)(O)O)[C@@H](O)[C@H]1O [ATP]
EC50 of ATP (hP2X1 R139A; TEVC): no effect; also recorded: without affecting | apparent affinity (EC50) of ATP, effect of mutation (hP2X1 K140A; hP2X1 K140A vs wild-type, TEVC): do not appear to significantly change; also recorded: no major effect; also recorded: did not impact | EC50 (P2X3): 500 to 1000 nM
